# Earlier results as cited in patent publication US7122195B2, “Mutant mycobacteria for use in therapy” (priority 2000, dated 2006).
# Test system: M. tuberculosis complex
smiles,measurement,value
Cc1ncc([N+](=O)[O-])n1CCO [Metronidazole],Activity on anaerobic grown M. tuberculosis complex,acts exclusively on anaerobic grown
same,Effect on growth of aerobic grown cultures,does not affect the growth
